pKd: −log10 of the molar value. Like-named read-outs stand apart in the source and are kept apart here.
Assays:
[1] = molecular target: T1, YiiP (Escherichia coli, UniProt P69380); details: cited from earlier work
[2] = molecular target: T1, YiiP; details: cited from earlier work; remark: listed apart in the source
[3] = molecular target: T1, YiiP; details: Kd1 145 μM vs Kd2 0.24 μM
From the text: Anomalous difference Fourier maps of native crystals were computed using experimental phases and diffraction data collected at the zinc edge.

T1 sequence (P69380 whole entry): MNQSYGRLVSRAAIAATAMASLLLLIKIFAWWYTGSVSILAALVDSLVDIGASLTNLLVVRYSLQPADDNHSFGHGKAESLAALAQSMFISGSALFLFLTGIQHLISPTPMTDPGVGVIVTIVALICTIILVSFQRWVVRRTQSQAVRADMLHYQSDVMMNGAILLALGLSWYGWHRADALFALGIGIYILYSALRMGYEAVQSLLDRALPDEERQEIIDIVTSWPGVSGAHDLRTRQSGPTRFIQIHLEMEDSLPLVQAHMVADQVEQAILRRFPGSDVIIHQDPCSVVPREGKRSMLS

| SMILES | binding affinities, metal binding mapped to D49 and D157 in the transmembrane domain [1] | Zn2+ stoichiometry units per YiiP protomer ([1]; EDTA pre-treated YiiP) | pKd ([1]; read-out: dissociation constant (Kd, Kd1), low affinity component / site-Z2, low-affinity binding component, intracellular-facing site-Z2) | pKd ([1]; read-out: dissociation constant (Kd, Kd2), high affinity sites / site-Z1, two high affinity Zn2+-binding sites, overall Kd, attributed to site-Z1) | turnover rate of Zn2+ transport across the membrane ([2]; 30-ms timescale) | Km ([2]; read-out: Michaelis-Menten constant (Km) of Zn2+ transport by YiiP) | affinity difference between site-Z1 and Z2 [3] |
| --- | --- | --- | --- | --- | --- | --- | --- |
| [Cd+2] [Cd^2+] | submicromolar range | – | – | – | – | – | – |
| [Zn+2] [Zn^2+] | submicromolar range | 2.6 | 3.84 | 6.62 | 34 s^− | 310 µM | 604 fold |

Source: US20090171592A1, “Homology Models of Mammalian Zinc Transporters and Methods of Using Same” (Brookhaven Science Associates, LLC, priority 2007, published 2009)
